Data set [1] deals with Plasmepsin II (Plasmodium falciparum, UniProt P46925). Put plainly: Inhibition of Plasmodium falciparum PLM2 using Lys-Glu-Phe-Val-Phe-NPhe-Ala-Leu-Lys as substrate by spectrophotometry. The following applies: for pKi: read-out: Ki.
Data set [2] in a line: Inhibition of Plasmodium falciparum PLM4 using Lys-Glu-Phe-Val-Phe-NPhe-Ala-Leu-Lys as substrate by spectrophotometry.
Data set [3] can be described thus: Inhibition of Plasmodium malariae PLM4 using Lys-Glu-Phe-Val-Phe-NPhe-Ala-Leu-Lys as substrate by spectrophotometry.
Data set [4] is described as follows: Inhibition of Plasmodium ovale PLM4 using Lys-Glu-Phe-Val-Phe-NPhe-Ala-Leu-Lys as substrate by spectrophotometry.
A short description of data set [5]: Inhibition of Plasmodium vivax PLM4 using Lys-Glu-Phe-Val-Phe-NPhe-Ala-Leu-Lys as substrate by spectrophotometry.
In data set [6] the test system is Plasmodium falciparum. Kind of data set: Antiplasmodial activity against chloroquine-sensitive Plasmodium falciparum D10. The data set is classed as functional, organism-based.
Data set [7] relates to Plasmodium falciparum. Put plainly: Antiplasmodial activity against chloroquine-resistant Plasmodium falciparum W2. The data set is classed as functional, organism-based.
Data set [8] can be described thus: Cytotoxicity against human HDF at 100 uM. The following applies: HDF cells, read-out: INH.
Data set [9] deals with Plasmodium falciparum. Kind of data set: microbe, parasite or virus in culture. To be noted: D10, 72 h.
Description: Antiplasmodial activity against chloroquine-sensitive Plasmodium falciparum D10 after 72 hrs by parasite lactate dehydrogenase assay
In data set [10] the test system is Plasmodium falciparum. Put plainly: microbe, parasite or virus in culture. The following applies: W2, 72 h.
Description: Antiplasmodial activity against chloroquine-resistant Plasmodium falciparum W2 after 72 hrs by parasite lactate dehydrogenase assay
Data set [11] concerns the target Cathepsin D (Homo sapiens, UniProt P07339). Kind of data set: Inhibition of human cathepsin D.

The values that follow come from ChEMBL document CHEMBL2069175, “Antiplasmodial activities of 4-aminoquinoline-statine compounds” (Bioorg Med Chem Lett, 2012).

pIC50, pKi: −log10 of the molar value. A value given as a limit tells only on which side of the number the result lay.

Sequence of Plasmepsin II (P46925 whole entry): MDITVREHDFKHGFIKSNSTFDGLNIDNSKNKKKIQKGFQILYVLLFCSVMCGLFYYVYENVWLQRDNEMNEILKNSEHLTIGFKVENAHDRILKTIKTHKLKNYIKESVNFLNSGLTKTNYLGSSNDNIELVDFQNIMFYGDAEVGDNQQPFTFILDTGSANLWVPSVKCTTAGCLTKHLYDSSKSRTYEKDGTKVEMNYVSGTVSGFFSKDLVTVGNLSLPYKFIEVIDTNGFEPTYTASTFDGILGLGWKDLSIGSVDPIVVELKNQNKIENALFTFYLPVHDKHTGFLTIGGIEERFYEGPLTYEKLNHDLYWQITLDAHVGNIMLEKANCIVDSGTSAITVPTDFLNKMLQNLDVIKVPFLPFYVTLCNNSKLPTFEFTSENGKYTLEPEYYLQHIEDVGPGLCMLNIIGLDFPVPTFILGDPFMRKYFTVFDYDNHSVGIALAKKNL
Sequence of Cathepsin D (P07339 65-162 limits assumed): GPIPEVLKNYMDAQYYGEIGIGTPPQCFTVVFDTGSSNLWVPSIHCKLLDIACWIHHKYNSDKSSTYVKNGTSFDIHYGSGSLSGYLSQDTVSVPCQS
Sequence of Cathepsin D (P07339 169-412 limits assumed): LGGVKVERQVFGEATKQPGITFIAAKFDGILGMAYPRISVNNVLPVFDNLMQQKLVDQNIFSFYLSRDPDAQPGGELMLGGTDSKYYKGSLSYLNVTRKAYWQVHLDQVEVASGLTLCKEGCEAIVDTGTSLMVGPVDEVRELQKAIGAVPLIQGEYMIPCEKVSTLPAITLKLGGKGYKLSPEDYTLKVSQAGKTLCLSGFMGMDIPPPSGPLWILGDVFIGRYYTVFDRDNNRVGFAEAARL

`CCCCNC(=O)C[C@H](O)[C@H](CC(C)C)NC(=O)[C@@H](NC(=O)c1ccc(Oc2ccc(C(=O)N[C@@H](CC(C)C)C(=O)N[C@@H](CCCCN)C(=O)NCCCC(C)Nc3cc(OC)cc4cccnc34)cc2)cc1)[C@@H](C)CC` (some centres not stated): the pKi is 9.40 in data set [1]; 9.30 in [2]; 8.92 in data set [3]; 8.00 in data set [4]; 8.92 in data set [5]. The negative-log IC50 (pIC50) in [6] is 6.40; in [7], 6.40; in data set [9], 6.40; in data set [10], 6.15. Besides, in data set [8], the cytotoxicity at 100 µM was found to be 50%.

`CCCCNC(=O)C[C@H](O)[C@H](CC(C)C)NC(=O)[C@@H](NC(=O)c1ccc(Oc2ccc(C(=O)NCCCNc3ccnc4cc(Cl)ccc34)cc2)cc1)[C@@H](C)CC`: the pKi in data set [1] was 8.64; in [2] it was 8.27; in data set [3] it was 9.03; in data set [4], 7.96; in data set [5] it was 9.15. Besides, the pIC50 is 6.66 in data set [11], 6.75 in data set [9] and 7.11 in data set [10].

For `CCCCNC(=O)C[C@H](O)[C@H](CC(C)C)NC(=O)[C@@H](NC(=O)c1ccc(Oc2ccc(C(=O)N[C@@H](C)C(=O)NCCCNc3ccnc4cc(Cl)ccc34)cc2)cc1)[C@@H](C)CC`, the pKi was 8.42 in data set [1]; 8.06 in data set [2]; 8.62 in data set [3]; 8.07 in data set [4]; 9.32 in [5]. Besides, the pIC50 in [11] was 6.27; in [9], 6.94; in data set [10] it was 7.19.

Take `CCCCNC(=O)C[C@H](O)[C@H](CC(C)C)NC(=O)[C@@H](NC(=O)c1ccc(Oc2ccc(C(=O)N[C@@H](CC(C)C)C(=O)N[C@@H](C)C(=O)NCCCNc3ccnc4ccccc34)cc2)cc1)[C@@H](C)CC`: the pKi in data set [1] is 8.59; in data set [2], 8.17; in data set [3], 9.06; in [4], 8.09; in data set [5], 9.37. The pIC50 in data set [11] is 6.52; in data set [9] it was 6.79; in [10] it was 6.32.

`CCCCNC(=O)C[C@H](O)[C@H](CC(C)C)NC(=O)[C@@H](NC(=O)c1ccc(Oc2ccc(C(=O)NCc3ccccc3)cc2)cc1)[C@@H](C)CC`: the pKi in data set [1] was 8.89; in data set [2], 7.70; in [3] it was 8.24; in data set [4], 8.96; in data set [5], 7.72. Besides, the pIC50 in [9] and in data set [10] was less than 5.15 each time.

Take `CCCCNC(=O)C[C@H](O)[C@H](CC(C)C)NC(=O)[C@@H](NC(=O)c1ccc(Oc2ccc(C(=O)OCc3ccccc3)cc2)cc1)[C@@H](C)CC`: the pKi was 8.72 in data set [1]; 8.59 in [2]; 8.68 in [3]; 9.47 in [4]; 8.33 in data set [5]. Also, the pIC50 in [9] was 5.41; in [10] it was 5.33.

In the case of `CC(C)C[C@H](NC(=O)OCc1ccccc1)C(=O)N[C@@H](C)C(=O)NCCCNc1ccnc2cc(Cl)ccc12`, in data set [1], the Ki result is listed as “Not Active”. The pIC50 in [9] was 6.71; in [10], 5.78.

For `CCN(CC)CCCC(C)Nc1ccnc2cc(Cl)ccc12` (configuration not stated) [CHLOROQUINE], the Ki result in data set [1] is recorded as “Not Active”.

Broadly, the pKi is the negative decadic logarithm of the Ki, by convention in mol/L. What is called pIC50 is the IC50 on a negative log10 scale, so that one unit is a factor of ten.
